Drawing on article PMC6009907, “Synthesis, characterization and in vitro inhibition of metal complexes of pyrazole based sulfonamide on human erythrocyte carbonic anhydrase isozymes I and II” (Journal of Enzyme Inhibition and Medicinal Chemistry, 2017), this text covers IC50 and Ki for one compound.

Holding throughout (assay type): biochemical
Assay [1] deals with T1, hCA-I (Homo sapiens, UniProt P00915).
T1 construct: Purification of isoenzymes hCA-I and hCA-II from human erythrocytes; from tissue; host or cells: human erythrocytes (blood)
The assay is described as follows: CO2-hydratase activity assay (Wilbur and Anderson), hCA-I. As to conditions: hCA-I purified from human erythrocytes; CO2 hydration. On the procedure: (§1) In order to purify hCA-I and hCA-II isoenzymes, first, human blood was centrifuged at 1500 rpm for 20 min, and after the removal of the plasma, the erythrocytes were washed with an isotonic solution (0.9% NaCl). After that, the erythrocytes were lysed with 1.5 volume of ice-cold water. The lysate was centrifuged at 20 000 rpm for 30 min to remove cell membranes and non-lysed cells. […] After extensive washing with 25 mM tris–HCl/22 mM Na2SO4 (pH 8.7), the hCA-I and hCA-II isoenzymes were eluted with 1.0 M NaCl/25 mM Na2HPO4 (pH 6.3) and 0.1 M CH3COONa/0.5 M NaClO4 (pH 5.6).[45]^,[46] The amount of purified protein was estimated by the Bradford method[47] and SDS-PAGE was carried out to determine whether the elute containing the enzyme[48] (Supplemental Figure 1).
(§2) Carbonic anhydrase activity was assayed by following the hydration of CO2 according to the method described by Wilbur and Anderson.[49] CO2-hydratase activity as an enzyme unit (EU) was calculated by using the equation ((t0−tc)/tc) where t0 and tc are the times for pH change of the nonenzymatic and the enzymatic reactions, respectively.

Assay [2] concerns the target T2, hCA-II (Homo sapiens, UniProt P00918).
T2 construct: Purification of isoenzymes hCA-I and hCA-II from human erythrocytes; from tissue; host or cells: human erythrocytes (blood)
The assay can be described thus: Determination of Ki values (esterase activity, Lineweaver–Burk), hCA-II. The note with it: five substrate concentrations, Lineweaver–Burk plot. How it is done:
as §1
(§3) The method for determination of Ki values is described elsewhere.[52–56] […] Regression analysis graphs were drawn by plotting inhibitor concentrations versus enzyme activity by using Microsoft Excel Program.

Assay [3] concerns the target T2, hCA-II. The assay is described as follows: CO2-hydratase activity assay (Wilbur and Anderson), hCA-II. The note with it: hCA-II purified from human erythrocytes; CO2 hydration. How it is done: as §1, §2
Assay [4] has as its target T2, hCA-II. The assay is described as follows: Esterase activity assay (4-nitrophenylacetate, 348 nm), hCA-II. As to conditions: hCA-II purified from human erythrocytes, 25 °C, pH 7.4. How it is done:
as §1
(§4) The enzymatic reaction, in a total volume of 3.0 mL, contained 1.4 mL of 0.05 M tris–SO4 buffer (pH 7.4), 1 mL of 3 mM 4-nitrophenylacetate, 0.5 mL H2O and 0.1 mL enzyme solution. A reference measurement was obtained by preparing the same cuvette without enzyme solution.
as §3

Assay [5] concerns the target T1, hCA-I. The assay is described as follows: Determination of Ki values (esterase activity, Lineweaver–Burk), hCA-I. As to conditions: five substrate concentrations, Lineweaver–Burk plot. How it is done:
as §1, §3

Assay [6] deals with T1, hCA-I. The assay can be described thus: Esterase activity assay (4-nitrophenylacetate, 348 nm), hCA-I. As to conditions: hCA-I purified from human erythrocytes, 25 °C, pH 7.4. How it is done: as §1, §4, §3

T1 sequence (P00915 whole entry): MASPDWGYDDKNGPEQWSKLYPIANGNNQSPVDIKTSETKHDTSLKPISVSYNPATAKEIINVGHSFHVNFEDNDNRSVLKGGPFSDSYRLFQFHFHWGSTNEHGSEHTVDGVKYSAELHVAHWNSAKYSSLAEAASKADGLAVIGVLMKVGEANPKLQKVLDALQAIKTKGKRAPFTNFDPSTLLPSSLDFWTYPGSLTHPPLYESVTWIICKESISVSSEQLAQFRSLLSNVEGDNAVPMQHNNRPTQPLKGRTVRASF

Consider `CCOC(=O)c1c(C(=O)Nc2nnc(S(N)(=O)=O)s2)nn(-c2cccc([N+](=O)[O-])c2)c1-c1ccccc1` [compound 1, ethyl 1-(3-nitrophenyl)-5-phenyl-3-((5-sulfamoyl-1,3,4-thiadiazol-2-yl)carbamoyl)-1H-pyrazole-4-carboxylate], for which the IC50 came to 1.4 µM against hCA-I [1], 0.9 µM against hCA-II [3], 5.6 µM on hCA-II [4] and 2.8 µM at hCA-I [6]. Besides, the Ki on hCA-II [2] was 5.3 µM; at hCA-I [5], 1.1 µM.

The term IC50 denotes the point on the concentration scale where inhibition reaches its midpoint. A high value points to a need for much substance. As a reminder, the Ki is a measure of affinity in units of concentration, obtained from inhibition or displacement. Low readings indicate higher affinity, high ones lower affinity.
